Patent US6737383B1, “Herbicidal oxadiazolidines” (priority 1999, dated 2004)

Tests used:
surinam grass = test: Test B pre/postemergence surinam grass; format: in vivo, Brachiaria decumbens
In short: (§1)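 Test chemicals in a non-phytotoxic solvent mixture with surfactant were sprayed preemergence onto planted seeds and postemergence onto plants 2 to 18 cm tall (1- to 4-leaf stage). After twelve to sixteen days in a greenhouse, injury was visually rated against untreated controls from 0 (no effect) to 10 (complete control).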

purple nutsedge = test: Test B pre/postemergence purple nutsedge; format: in vivo, Cyperus rotundus; details: for Plant response rating, Nutsedge: scale of 0 to 10 where 0 is no effect and 10 is complete control
In short: as §1

corn = test: Test B pre/postemergence corn; format: in vivo, Zea mays
In short: as §1

pigweed = test: Test B pre/postemergence pigweed; format: in vivo, Amaranthus retroflexus
In short: as §1

blackgrass = test: Test B pre/postemergence blackgrass; format: in vivo, Alopecurus myosuroides
In short: as §1

sugar beet = test: Test B pre/postemergence sugar beet; format: in vivo, Beta vulgaris
In short: as §1

bedstraw = test: Test B pre/postemergence bedstraw; format: in vivo, Galium aparine
In short: as §1

cocklebur = test: Test B pre/postemergence cocklebur; format: in vivo, Xanthium strumarium
In short: as §1

wheat = test: Test B pre/postemergence wheat; format: in vivo, Triticum aestivum
In short: as §1

morningglory = test: Test B pre/postemergence morningglory; format: in vivo, Ipomoea hederacea
In short: as §1

wild oat = test: Test B pre/postemergence wild oat; format: in vivo, Avena fatua
In short: as §1

crabgrass = test: Test B pre/postemergence crabgrass; format: in vivo, Digitaria sanguinalis
In short: as §1

rape = test: Test B pre/postemergence rape; format: in vivo, Brassica napus
In short: as §1

velvetleaf = test: Test B pre/postemergence velvetleaf; format: in vivo, Abutilon theophrasti
In short: as §1

giant foxtail = test: Test B pre/postemergence giant foxtail; format: in vivo, Setaria faberii
In short: as §1

soybean = test: Test B pre/postemergence soybean; format: in vivo, Glycine max
In short: as §1

[1] = Postemergence, Rate 62 g/ha, scale of 0 to 10, 0 is no effect, 10 is complete control
[2] = Postemergence, Rate 500 g/ha, scale of 0 to 10 where 0 is no effect and 10 is complete control
[3] = Preemergence, Rate 62 g/ha, scale 0 to 10 (0 no effect, 10 complete control)
[4] = Preemergence, Rate 125 g/ha, scale 0 to 10, 0 is no effect, 10 is complete control
[5] = Preemergence, Rate 500 g/ha, scale of 0 to 10 where 0 is no effect and 10 is complete control
[6] = Rate 250 g/ha, Postemergence, scale of 0 to 10 where 0 is no effect and 10 is complete control
[7] = Postemergence, Rate 125 g/ha, scale 0 to 10, 0 is no effect, 10 is complete control

COCCOCn1c(=O)on(C(=O)N(c2ccccc2)C(C)C)c1=O [Compound 564]
B. signalgrass plant response rating (surinam grass; [1]): 0
Plant response rating, B. signalgrass (surinam grass; [2]): 8
B. signalgrass plant response rating (surinam grass; [3]): 2
B. signalgrass plant response rating (surinam grass; [4]): 6
B. signalgrass plant response rating (0 to 10 scale, 0 is no effect, 10 is complete control) (surinam grass; Preemergence, Rate 250 g/ha): 6
B. signalgrass plant response rating (surinam grass; [5]): 7
Plant response rating, B. signalgrass (surinam grass; [6]): 3
Nutsedge plant response rating (purple nutsedge; [1]): 0
Plant response rating, Nutsedge (purple nutsedge; Postemergence, Rate 500 g/ha): 0
Nutsedge plant response rating (purple nutsedge; [3]): 0
Nutsedge plant response rating (purple nutsedge; [4]): 0
Plant response rating, Nutsedge (purple nutsedge; Rate 250 g/ha, Postemergence): 0
Corn plant response rating (corn; [1]): 0
Corn plant response rating (corn; [7]): 0
Plant response rating, Corn (corn; [2]): 6
Corn plant response rating (corn; [3]): 2
Corn plant response rating (corn; [4]): 4
Corn plant response rating (0 to 10 scale) (corn; Preemergence, Rate 250 g/ha): 4
Corn plant response rating (corn; [5]): 9
Plant response rating, Corn (corn; [6]): 0
Redroot pigweed plant response rating (pigweed; [1]): 3
Plant response rating, Redroot pigweed (pigweed; [2]): 3
Redroot pigweed plant response rating (pigweed; [3]): 0
Redroot pigweed plant response rating (pigweed; [4]): 0
Redroot pigweed plant response rating (0 to 10 scale) (pigweed; Preemergence, Rate 250 g/ha): 3
Redroot pigweed plant response rating (pigweed; [5]): 3
Plant response rating, Redroot pigweed (pigweed; [6]): 3
Blackgrass plant response rating (blackgrass; [1]): 0
Blackgrass plant response rating (blackgrass; [7]): 4
Plant response rating, Blackgrass (blackgrass; [2]): 4
Blackgrass plant response rating (blackgrass; [3]): 0
Blackgrass plant response rating (blackgrass; [4]): 5
Blackgrass plant response rating (0 to 10 scale) (blackgrass; Preemergence, Rate 250 g/ha): 5
Blackgrass plant response rating (blackgrass; [5]): 9
Plant response rating, Blackgrass (blackgrass; [6]): 4
Sugarbeets plant response rating (sugar beet; [1]): 0
Plant response rating, Sugarbeets (sugar beet; [2]): 2
Sugarbeets plant response rating (sugar beet; [3]): 2
Sugarbeets plant response rating (sugar beet; [4]): 2
Sugarbeets plant response rating (0 to 10 scale) (sugar beet; Preemergence, Rate 250 g/ha): 3
Sugarbeets plant response rating (sugar beet; [5]): 3
Plant response rating, Sugarbeets (sugar beet; [6]): 2
Bedstraw plant response rating (bedstraw; [1]): 0
Plant response rating, Bedstraw (bedstraw; [2]): 0
Bedstraw plant response rating (bedstraw; [3]): 0
Bedstraw plant response rating (bedstraw; [4]): 0
Bedstraw plant response rating (0 to 10 scale) (bedstraw; Preemergence, Rate 250 g/ha): 0
Bedstraw plant response rating (bedstraw; [5]): 0
Cocklebur plant response rating (cocklebur; [1]): 0
Cocklebur plant response rating (cocklebur; [7]): 0
Plant response rating, Cocklebur (cocklebur; [2]): 2
Cocklebur plant response rating (cocklebur; [3]): 0
Cocklebur plant response rating (cocklebur; [4]): 0
Cocklebur plant response rating (0 to 10 scale) (cocklebur; Preemergence, Rate 250 g/ha): 0
Cocklebur plant response rating (cocklebur; [5]): 0
Plant response rating, Cocklebur (cocklebur; [6]): 0
Wheat plant response rating (wheat; [1]): 0
Plant response rating, Wheat (wheat; [2]): 2
Wheat plant response rating (wheat; [3]): 0
Wheat plant response rating (wheat; [4]): 6
Wheat plant response rating (0 to 10 scale) (wheat; Preemergence, Rate 250 g/ha): 7
Wheat plant response rating (wheat; [5]): 7
Morningglory plant response rating (morningglory; [1]): 5
Morningglory plant response rating (morningglory; [7]): 7
Plant response rating, Morningglory (morningglory; [2]): 10
Morningglory plant response rating (morningglory; [3]): 0
Morningglory plant response rating (morningglory; [4]): 2
Morningglory plant response rating (0 to 10 scale) (morningglory; Preemergence, Rate 250 g/ha): 2
Morningglory plant response rating (morningglory; [5]): 4
Plant response rating, Morningglory (morningglory; [6]): 10
Wild oats plant response rating (wild oat; [1]): 0
Plant response rating, Wild oats (wild oat; [2]): 2
Wild oats plant response rating (wild oat; [3]): 0
Wild oats plant response rating (wild oat; [4]): 0
Wild oats plant response rating (0 to 10 scale) (wild oat; Preemergence, Rate 250 g/ha): 4
Wild oats plant response rating (wild oat; [5]): 7
Crabgrass plant response rating (crabgrass; [1]): 2
Crabgrass plant response rating (crabgrass; [7]): 3
Plant response rating, Crabgrass (crabgrass; [2]): 9
Crabgrass plant response rating (crabgrass; [3]): 7
Crabgrass plant response rating (crabgrass; [4]): 8
Crabgrass plant response rating (0 to 10 scale) (crabgrass; Preemergence, Rate 250 g/ha): 9
Crabgrass plant response rating (crabgrass; [5]): 9
Plant response rating, Crabgrass (crabgrass; [6]): 8
Rape plant response rating (rape; [1]): 0
Rape plant response rating (rape; [7]): 0
Plant response rating, Rape (rape; [2]): 2
Rape plant response rating (rape; [3]): 0
Rape plant response rating (rape; [4]): 0
Rape plant response rating (0 to 10 scale) (rape; Preemergence, Rate 250 g/ha): 0
Rape plant response rating (rape; [5]): 3
Plant response rating, Rape (rape; [6]): 2
Velvetleaf plant response rating (velvetleaf; [1]): 0
Plant response rating, Velvetleaf (velvetleaf; [2]): 3
Velvetleaf plant response rating (velvetleaf; [3]): 0
Velvetleaf plant response rating (velvetleaf; [4]): 2
Velvetleaf plant response rating (0 to 10 scale) (velvetleaf; Preemergence, Rate 250 g/ha): 6
Velvetleaf plant response rating (velvetleaf; [5]): 8
Plant response rating, Velvetleaf (velvetleaf; [6]): 2
Giant foxtail plant response rating (giant foxtail; [1]): 2
Giant foxtail plant response rating (giant foxtail; [7]): 3
Plant response rating, Giant foxtail (giant foxtail; [2]): 9
Giant foxtail plant response rating (giant foxtail; [3]): 9
Giant foxtail plant response rating (giant foxtail; [4]): 9
Giant foxtail plant response rating (0 to 10 scale) (giant foxtail; Preemergence, Rate 250 g/ha): 9
Giant foxtail plant response rating (giant foxtail; [5]): 9
Plant response rating, Giant foxtail (giant foxtail; [6]): 7
Soybean plant response rating (soybean; [1]): 0
Plant response rating, Soybean (soybean; [2]): 5
Soybean plant response rating (soybean; [3]): 0
Soybean plant response rating (soybean; [4]): 0
Soybean plant response rating (0 to 10 scale) (soybean; Preemergence, Rate 250 g/ha): 4
Soybean plant response rating (soybean; [5]): 8
Plant response rating, Soybean (soybean; [6]): 5
